Assay results: ChEMBL document CHEMBL6071184, “Lasamide, a Potent Human Carbonic Anhydrase Inhibitor from the Market: Inhibition Profiling and Crystallographic Studies” (ACS Med Chem Lett, 2024)

Columns and labels:
Carbonic anhydrase 4 = Carbonic anhydrase 4 (Homo sapiens, UniProt P22748); assay: Inhibition of full-length recombinant human CA IV-catalysed CO2 hydration by stopped-flow technique
[1] = target: Carbonic anhydrase 5B, mitochondrial (Homo sapiens, UniProt Q9Y2D0); assay: Inhibition of full-length recombinant human CA VB-catalysed CO2 hydration by stopped-flow technique
Sequence of Carbonic anhydrase 5B, mitochondrial (Q9Y2D0 whole entry): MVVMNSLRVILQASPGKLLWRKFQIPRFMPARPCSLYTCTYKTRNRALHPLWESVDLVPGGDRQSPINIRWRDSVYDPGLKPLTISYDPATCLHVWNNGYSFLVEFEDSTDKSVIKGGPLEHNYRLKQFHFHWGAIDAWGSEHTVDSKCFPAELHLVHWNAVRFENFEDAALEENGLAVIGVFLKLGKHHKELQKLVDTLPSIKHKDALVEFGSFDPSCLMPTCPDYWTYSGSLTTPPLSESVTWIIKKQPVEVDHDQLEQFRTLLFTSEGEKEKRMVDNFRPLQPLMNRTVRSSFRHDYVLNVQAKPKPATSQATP

Carbonic anhydrase 13 = Carbonic anhydrase 13 (Mus musculus, UniProt Q9D6N1); assay: Inhibition of mouse CA XIII-catalysed CO2 hydration by stopped-flow technique
Sequence of Carbonic anhydrase 13 (Q9D6N1 whole entry): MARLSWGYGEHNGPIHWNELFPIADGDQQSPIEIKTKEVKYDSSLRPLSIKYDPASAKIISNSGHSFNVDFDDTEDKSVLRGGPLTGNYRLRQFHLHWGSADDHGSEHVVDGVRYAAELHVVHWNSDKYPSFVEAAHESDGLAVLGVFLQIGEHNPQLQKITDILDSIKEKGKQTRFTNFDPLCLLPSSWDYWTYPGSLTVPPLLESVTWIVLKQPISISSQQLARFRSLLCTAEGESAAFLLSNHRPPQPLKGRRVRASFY

Carbonic anhydrase 14 = Carbonic anhydrase 14 (Homo sapiens, UniProt Q9ULX7); assay: Inhibition of full-length recombinant human CA XIV-catalysed CO2 hydration by stopped-flow technique
Sequence of Carbonic anhydrase 14 (Q9ULX7 whole entry): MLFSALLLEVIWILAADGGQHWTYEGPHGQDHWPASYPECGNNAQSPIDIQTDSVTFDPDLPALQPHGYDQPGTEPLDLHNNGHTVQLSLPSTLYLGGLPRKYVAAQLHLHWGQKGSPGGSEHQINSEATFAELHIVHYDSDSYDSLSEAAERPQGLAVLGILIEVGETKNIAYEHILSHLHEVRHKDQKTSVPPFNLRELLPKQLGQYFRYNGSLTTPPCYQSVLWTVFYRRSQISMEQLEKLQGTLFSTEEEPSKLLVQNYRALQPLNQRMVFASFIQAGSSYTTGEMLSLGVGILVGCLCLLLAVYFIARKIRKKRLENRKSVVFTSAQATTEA

Carbonic anhydrase 3 = Carbonic anhydrase 3 (Homo sapiens, UniProt P07451)
Sequence of Carbonic anhydrase 3 (P07451 whole entry): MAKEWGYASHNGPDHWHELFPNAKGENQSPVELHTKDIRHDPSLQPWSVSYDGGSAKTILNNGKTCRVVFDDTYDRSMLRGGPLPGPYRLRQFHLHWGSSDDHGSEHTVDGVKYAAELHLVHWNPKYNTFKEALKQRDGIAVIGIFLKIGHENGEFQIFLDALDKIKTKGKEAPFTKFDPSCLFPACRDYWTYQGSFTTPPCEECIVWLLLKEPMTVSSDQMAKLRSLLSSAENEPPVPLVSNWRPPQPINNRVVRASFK
Description: Inhibition of full-length recombinant human CA III-catalysed CO2 hydration by stopped-flow technique

[2] = target: Carbonic anhydrase 5A, mitochondrial (Homo sapiens, UniProt P35218)
Sequence of Carbonic anhydrase 5A, mitochondrial (P35218 whole entry): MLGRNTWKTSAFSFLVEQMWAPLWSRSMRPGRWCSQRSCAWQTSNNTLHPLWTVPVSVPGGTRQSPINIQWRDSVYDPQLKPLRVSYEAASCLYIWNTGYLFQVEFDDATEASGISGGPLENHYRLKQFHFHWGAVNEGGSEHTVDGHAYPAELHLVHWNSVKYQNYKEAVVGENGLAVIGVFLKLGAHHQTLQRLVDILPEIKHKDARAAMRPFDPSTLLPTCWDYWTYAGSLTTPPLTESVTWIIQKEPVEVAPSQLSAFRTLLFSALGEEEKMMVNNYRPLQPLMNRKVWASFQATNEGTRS
Description: Inhibition of full-length recombinant human CA VA-catalysed CO2 hydration by stopped-flow technique

Carbonic anhydrase 6 [3] = target: T1, Carbonic anhydrase 6 (Homo sapiens, UniProt P23280)
T1 sequence (P23280 whole entry): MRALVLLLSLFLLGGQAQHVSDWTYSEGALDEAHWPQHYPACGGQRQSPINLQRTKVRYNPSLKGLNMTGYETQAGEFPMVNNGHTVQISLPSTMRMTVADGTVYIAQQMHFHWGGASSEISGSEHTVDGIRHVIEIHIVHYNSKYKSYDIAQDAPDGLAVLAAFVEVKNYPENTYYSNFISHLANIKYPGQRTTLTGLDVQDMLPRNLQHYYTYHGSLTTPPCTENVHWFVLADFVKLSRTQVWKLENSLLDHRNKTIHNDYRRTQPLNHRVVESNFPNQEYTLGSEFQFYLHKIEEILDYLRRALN
Description: Inhibition of full-length recombinant human saliva CA VI-catalysed CO2 hydration by stopped-flow technique

Carbonic anhydrase 6 [4] = target: T1, Carbonic anhydrase 6; remark: listed apart in the source
Description: Inhibition of full-length recombinant human milk CA VI-catalysed CO2 hydration by stopped-flow technique

Carbonic anhydrase 7 = Carbonic anhydrase 7 (Homo sapiens, UniProt P43166)
Sequence of Carbonic anhydrase 7 (P43166 whole entry): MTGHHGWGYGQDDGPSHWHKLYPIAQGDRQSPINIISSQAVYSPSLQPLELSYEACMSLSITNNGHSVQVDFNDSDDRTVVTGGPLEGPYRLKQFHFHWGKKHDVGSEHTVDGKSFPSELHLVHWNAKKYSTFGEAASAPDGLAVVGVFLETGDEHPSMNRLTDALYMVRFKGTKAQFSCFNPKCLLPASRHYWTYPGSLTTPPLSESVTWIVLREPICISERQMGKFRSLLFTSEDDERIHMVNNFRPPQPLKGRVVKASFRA
Description: Inhibition of full-length recombinant human CA VII-catalysed CO2 hydration by stopped-flow technique

Sequence of Carbonic anhydrase 4 (P22748 whole entry): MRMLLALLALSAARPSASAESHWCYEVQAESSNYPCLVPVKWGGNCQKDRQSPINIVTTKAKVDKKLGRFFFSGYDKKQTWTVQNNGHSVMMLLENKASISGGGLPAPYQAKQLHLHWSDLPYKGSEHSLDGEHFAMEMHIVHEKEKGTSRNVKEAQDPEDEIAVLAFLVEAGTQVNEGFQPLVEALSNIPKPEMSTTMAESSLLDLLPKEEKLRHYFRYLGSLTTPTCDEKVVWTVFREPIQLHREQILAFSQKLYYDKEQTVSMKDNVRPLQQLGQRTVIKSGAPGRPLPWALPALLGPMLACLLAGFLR

NS(=O)(=O)c1cc(C(=O)O)c(Cl)cc1Cl
Ki (Carbonic anhydrase 4): 1.91 nM
Ki [1]: 14.2 nM
Ki (Carbonic anhydrase 13): 9.37 nM
Ki (Carbonic anhydrase 14): 11.9 nM
Ki (Carbonic anhydrase 3): > 50000 nM
Ki [2]: 3.49 nM
Ki (Carbonic anhydrase 6 [3]): 11.7 nM
Ki (Carbonic anhydrase 6 [4]): 8.51 nM
Ki (Carbonic anhydrase 7): 6.63 nM
